We go through one compound from EP0169785A1, “Use of 1,8,9-triacetoxy-anthracene as the active ingredient in the preparation of an antitumoral pharmaceutical compound” (CENTRE INTERNATIONAL DE RECHERCHES DERMATOLOGIQUES C.I.R.D. …, priority 1984, dated 1986).

Data set [1] has as its system cellules de mélanocarcinome B 16. Description: Anti-tumour activity against intraperitoneally implanted B 16 melanocarcinoma in mice (median survival time). The format is in vivo, souris. Particulars: for Temps médian de survie (en jours) Animaux testés T / T/C X 100: intraperitoneal; for Temps médian de survie (en jours) Animaux testés T: daily for 9 days after tumour implantation, controls C 15,4 days; for T/C X 100: active when ratio above 125. The method, then: EXEMPLE 5 - Etude de l'activité anti-tumorale vis-à-vis des cellules de mélanocarcinome B 16.
Le principe du test est le suivant : On a implanté, chez la souris, par injection intrapériotonéale au jour 0, 0,5 ml d'un homogénéisat dilué (1/10) des cellules tumorales.
Le traitement consiste à administrer le produit étudié, quotidiennement, par voie intrapéritonéale, pendant les 9 jours suivant l'implantation de la tumeur.
Ou considère qu'un produit est actif, selon ce test, lorsque le rapport [formula] est supérieur à 125.

Data set [2] can be described thus: Solubility (qualitative description). The format is physicochemical. Particulars: solvents named.
The test system of data set [3] is cellules leucémiques lymphocytiques P 388. The data set is described as follows: Anti-tumour activity against intraperitoneally implanted P 388 lymphocytic leukaemia in mice (median survival time). Type of data set: in vivo, souris. Particulars: for Temps médian de survie (en jours) Animaux testés T / T/C x 100: intraperitoneal; for Temps médian de survie (en jours) Animaux testés T: daily for 5 days after tumour implantation, controls C 9,9 days; for T/C x 100: active when ratio above 120. As for the experimental part: EXEMPLE 4 - Etude de l'activité anti-tumorale vis-à-vis des cellules leucémiques lymphocytiques P 388.
Le principe du test est le suivant : On implante chez la souris, au jour zéro, une tumeur, par injection intrapéritonéale de 10^6 cellules tumorales dans 0,1 ml de fluide ascitique dilué. Le traitement consiste à administrer quotidiennement le produit étudié, par voie intrapéritonéale pendant les 5 jours suivant l'implantation de la tumeur.
On considère que le produit est actif selon ce test, lorsque le rapport [formula] est supérieur à 120.

Consider `CC(=O)Oc1cccc2cc3cccc(OC(C)=O)c3c(OC(C)=O)c12` [composé de formule I, triacétoxy-1,8,9 anthracène], for which the “Temps médian de survie (en jours) Animaux testés T” value in data set [1] (0,75 mg/kg) is 19,7 jours; in data set [1] (3 mg/kg) it was 20 jours; in data set [1] (1,5 mg/kg) it was 23 jours; in data set [3] (0,79 mg/kg) it was 12,3 jours; in data set [3] (1,56 mg/kg) it was 13,3 jours; in data set [3] (3,12 mg/kg), 13 jours. Also, the “T/C X 100” value in data set [1] (0,75 mg/kg, daily for 9 days) worked out at 127; in data set [1] (3 mg/kg, daily for 9 days) it was 129; in data set [1] (1,5 mg/kg, daily for 9 days) it was 149. The dose optimale was ~1,50 mg/kg in data set [1] (B 16, intraperitoneal, daily for 9 days) and ~1,56 mg/kg in data set [3] (P 388, intraperitoneal, daily for 5 days). For the same compound, in data set [2], the solubilité result is given as “soluble notamment dans les alcools et l'acétone”. Moreover, the “T/C x 100” value turned out to be 124 in data set [3] (0,79 mg/kg, daily for 5 days); 134 in data set [3] (1,56 mg/kg, daily for 5 days); 131 in data set [3] (3,12 mg/kg, daily for 5 days). Also, the minimal effective dose in data set [3] (Mus musculus, P388, ip, 120 h, P 388, intraperitoneal, daily for 5 days, dose at which the compound is active (T/C x 100 above 120), read-out: actif à la dose de) is roughly 0.8 mg/kg.
